The values below come from US10292991B2, “Small molecule therapeutic compounds that reduce the incidence of intracerebral hemorrhage and brain microhemorrhages” (St. Michaels Hospital, priority 2016, dated 2019).

Structures are written as SMILES.

Data set [1] relates to LPS-induced brain microbleeds in mice. In words: LPS-induced microbleeding mouse model. The data set is classed as in vivo, C57BL/6 mice. The source says:
An LPS-mediated micro bleeding model was created similar to that described in Lui et al (Liu S, Grigoryan M M, Vasilevko V et al. Comparative analysis of H&E and Prussian blue staining in a mouse model of cerebral microbleeds. J Histochem Cytochem 2014; 62:767-773). 9-10 week old C57BL/6 mice of both sexes were purchased from Charles River, and randomly assigned to control or treatment groups in equal numbers. LPS from Salmonella enterica (Sigma Aldrich, St Louis, Mo.) was reconstituted with PBS to a final concentration of 5 mg/ml. Both control (n=16) and drug treatment (n=16) groups received injections of 5 mg/kg LPS at times 0 and 24 hrs. The drug treatment group, further divided into high dose (n=4) and low dose (n=12), received intraperitoneal injections of artemether (ARM) (25 mg/kg for Low dose and 100 mg/kg for High dose) at time points −72, −48, −24, 0 and 24 hrs of LPS treatment. All mice were sacrificed at 48 hrs after the first LPS injection.
LPS-induced microbleeding model: All mice in the LPS study were deeply anesthetized with ketamine and xylazine and perfused through the left cardiac ventricle with NaCl, 0.9%, followed by 4% paraformaldehyde (PFA) in 1×PBS buffer and 2 mM Gadoteridol contrast agent for 24 hours. Each brain was transferred into a 1×PBS+0.02% sodium azide and 2 mM Gadoteridol contrast agent. Brains were kept in this immersion solution for 14 days before imaging to ensure proper contrast diffusion in the brain for magnetic resonance imaging (MRI) scan. […]
For the integrin ICH model, brains were taken out of the skull, cut at the mid-coronal position and assessed in a binary manner for whether or not there was any evidence of ICH. […]
Brains were scanned using 7T Burker MRI with 16-channel solenoid coils. […] Following the reconstruction of images and applying image distortion correction algorithms, all brains were processed and analyzed for total volume of brain and total volume of hemorrhage. Quantification was done using percentage of bleeding (normalized to each brain size). […] Lastly, quantification was done in a blinded fashion. […]

Data set [2] is described as follows: Spectrophotometer analysis of blood hemoglobin concentration (Drabkin's method). The data set is classed as in vivo, C57BL/6 mice. The following applies: 25 mg/kg or 100 mg/kg for 3 days, n=4; no statistical difference between groups. The protocol: Drabkin's reagent (Sigma Aldrich) was used for calorimetric quantification of hemoglobin concentration at 540 nm. C57BL/6 mice were randomly assigned to three groups (each n=4): Control, Low-dose ARM, and High-dose ARM. For ARM groups, three days of 25 mg/kg/day and 100 mg/kg/day ARM were administered for low and high dose, respectively. Blood from saphenous vein were collected at day 4 and tested for hemoglobin concentration using UV 3600 Shimadzu spectrophotometer. A standard curve was generated using a known standard solution of cyanmethemoglobin, and blood concentrations of Hb was compared to the standard curve.
To assess possible anemia effect from ARM treatment as some previous studies speculated, blood samples were tested for hemoglobin concentration after ARM treatment. Blood hemoglobin concentration was assessed using Drabkins' method. Spectrophotometer data was compared to a standard curve from standard cyanmethemoglobin concentrations. The control group received no drug. The Treatment Dose group received 3 days injection of low dose ARM (25 mg/kg), 4× Treatment Dose group received 3 days injection of high dose ARM (100 mg/kg).

For data set [3], the system named is β-Pix MO-induced hemorrhage in zebrafish. The experiment in a line: βPix morpholino-induced hemorrhage in zebrafish, rescue by drugs. The data set is classed as in vivo, zebrafish (Danio rerio). Here is the method: Morpholino oligonucleotides (MOs) were custom-synthesized by Gene Tools (Carvalis, Oreg.); their sequences are shown in Table 1.
Danieau buffer (58 mM NaCl, 0.7 mM KCl, 0.4 mM MgSO4, 0.6 mM Ca(NO3)2, 5.0 mM HEPES, pH 7.6) was used to dilute the MO solutions to 0.2 mM final concentration. Individual wells were placed on a 1.0% agarose plate, in which the embryos were positioned. Afterwards, the MO solution was injected through the cell yolk into embryos of 1 to 4 cell-stage. The injected quantities varied from 0.5 to 15 ng.
bbhm292 zebrafish mutant has a hypomorphic mutation in βPix, resulting in ICH/BMH and hydrocephalus. The MO is βPixexon6-MO which blocks splicing of exon 6 and results in premature protein termination. […] Higher doses of βPixexon6-MO (up to 8 ng) result in a lack of blood circulation, and therefore no ICH/BMH was detected. Injection of 8 ng results in complete missplicing of βPix and therefore a null phenotype, whereas lower doses retain some normally spliced βPix. The βPixexon6-MO sequence is 5′-[…]-3′ [SEQ ID NO: 1]. 3Pixexon6-MO was injected into the embryos at the 1-2 cell stage, and compounds were added 12 hpf.
The first three morpholino pairs were good for the efficacy study. Efficacy assays were performed using Artemether (ARM, Sigma) and artemesunate (ART, GMP). […] Treating these morphants with the drugs rescued the ICH phenotype.

The term EC50 denotes the concentration giving half of the maximal effect. Turning to `CO[C@H]1O[C@@H]2O[C@@]3(C)CC[C@H]4[C@H](C)CC[C@@H]([C@H]1C)[C@@]24OO3` [Artemether], the “Total number of microbleeds inside the brain (H&E slices)” value in data set [1] (LPS+ARM vs LPS, n=8, P<0.01) is given as “significantly reduced”. For the same molecule, in data set [1] (LPS+ARM vs LPS, n=8, P<0.05), the “Total surface microbleeds (stereomicroscope count)” value is given as “robust reduction”. Besides, in data set [1] (vs model control group, n=8, P<0.05), the “Reduction of bleeding (MRI, total microbleed volume normalized to brain volume)” value was “about ⅔”. The “Anemia (blood hemoglobin concentration)” value in data set [2] is “did not cause anemia”. For the same molecule, the EC50 in data set [3] (Danio rerio, Table 6, read-out: EC50 to rescue hemorrhage induced by βPix - exon6 morpholino) stood at 51.6 ± 11.7 nM. Besides, in data set [3] (inhibition of β-Pix MO-induced hemorrhage), the “Efficacy on β-Pix MO Hemorrhage” value is listed as “+++++ (One + sign represents 20% inhibition on 1 μmol/L ATV or β-Pix MO-induced hemorrhage.)”.
